Laboratory results taken from patent US7528138B2, “Pyrazolo[1,5-a]pyrimidines useful as inhibitors of protein kinases” (Vertex Pharmaceuticals Incorporated, priority 2004, dated 2009).

Columns and labels:
Type in all cases: biochemical
c-Met = c-Met (Homo sapiens, UniProt P08581); experiment: c-Met Inhibition Assay, coupled enzyme system; conditions: enzyme inhibition data (Ki), Table 11
Procedure: Compounds are screened for their ability to inhibit c-Met kinase activity using a standard coupled enzyme system (Fox et al., Protein Sci. 1998, 7, 2249). Reactions are carried out in a solution containing 100 mM HEPES (pH 7.5), 10 mM MgCl2, 25 mM NaCl, 300 μM NADH, 1 mM DTT, and 1.5% DMSO. Final substrate concentrations in the assay are 200 μM ATP (Sigma Chemicals, St Louis, Mo.) and 10 μM polyGluTyr (Sigma Chemical Company, St. Louis). Reactions are carried out at 30° C. and 80 nM c-Met. Final concentrations of the components of the coupled enzyme system are 2.5 mM phosphoenolpyruvate, 300 μM NADH, 30 μg/ml pyruvate kinase and 10 μg/ml lactate dehydrogenase.
An assay stock buffer solution is prepared containing all of the reagents listed above with the exception of ATP and a test compound of the present invention. The assay stock buffer solution (175 μl) is incubated in a 96 well plate with 5 μl of the test compound of the present invention at final concentrations spanning 0.006 μM to 12.5 μM at 30° C. for 10 minutes. Typically, a 12-point titration is conducted by preparing serial dilutions (from 10 mM compound stocks) with DMSO of the test compounds of the present invention in daughter plates. The reaction is initiated by the addition of 20 μl of ATP (final concentration 200 μM). Rates of reaction are obtained using a Molecular Devices Spectramax plate reader (Sunnyvale, Calif.) over 10 minutes at 30° C. The Ki values are determined from the rate data as a function of inhibitor concentration.

JAK3 = biological target: T1, JAK3 (Homo sapiens, UniProt P52333); experiment: JAK3 Inhibition Assay, 33P incorporation; conditions: enzyme inhibition data (Ki), Table 11
T1 sequence (P52333 1-1124): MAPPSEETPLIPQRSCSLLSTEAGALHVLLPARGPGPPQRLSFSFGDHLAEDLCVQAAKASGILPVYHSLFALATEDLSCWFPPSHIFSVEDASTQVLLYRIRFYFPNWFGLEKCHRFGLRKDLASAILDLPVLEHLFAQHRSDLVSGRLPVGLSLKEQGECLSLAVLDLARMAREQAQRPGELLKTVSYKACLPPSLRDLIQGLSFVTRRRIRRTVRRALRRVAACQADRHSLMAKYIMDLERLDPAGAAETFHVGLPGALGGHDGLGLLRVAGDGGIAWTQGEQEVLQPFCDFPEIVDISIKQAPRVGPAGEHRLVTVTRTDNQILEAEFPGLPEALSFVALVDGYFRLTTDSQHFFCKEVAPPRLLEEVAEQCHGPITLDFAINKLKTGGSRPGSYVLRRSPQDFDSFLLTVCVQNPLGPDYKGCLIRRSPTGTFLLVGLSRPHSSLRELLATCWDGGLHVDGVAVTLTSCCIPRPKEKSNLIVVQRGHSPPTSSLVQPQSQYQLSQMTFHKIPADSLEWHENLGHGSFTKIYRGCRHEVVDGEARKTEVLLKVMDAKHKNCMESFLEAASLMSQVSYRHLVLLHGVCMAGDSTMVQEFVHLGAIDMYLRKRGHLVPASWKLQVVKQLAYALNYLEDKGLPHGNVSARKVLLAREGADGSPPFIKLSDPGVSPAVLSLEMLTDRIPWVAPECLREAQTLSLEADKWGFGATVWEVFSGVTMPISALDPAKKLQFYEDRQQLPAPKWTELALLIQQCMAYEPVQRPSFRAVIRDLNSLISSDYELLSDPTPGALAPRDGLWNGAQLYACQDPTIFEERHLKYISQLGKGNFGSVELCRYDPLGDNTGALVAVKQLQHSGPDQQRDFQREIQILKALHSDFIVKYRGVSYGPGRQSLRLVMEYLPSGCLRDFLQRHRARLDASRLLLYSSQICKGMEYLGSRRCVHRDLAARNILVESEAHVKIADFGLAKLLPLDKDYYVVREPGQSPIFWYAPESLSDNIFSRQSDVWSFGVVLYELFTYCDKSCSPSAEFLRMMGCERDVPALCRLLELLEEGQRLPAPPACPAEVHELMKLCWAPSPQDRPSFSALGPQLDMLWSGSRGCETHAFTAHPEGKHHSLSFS
Procedure: Reactions are carried out in a kinase buffer containing 100 mM HEPES (pH 7.4), 1 mM DTT, 10 mM MgCl2, 25 mM NaCl, and 0.01% BSA. Substrate concentrations in the assay are 5 μM ATP (200 uCi/μmole ATP) and 1 μM poly(Glu)4Tyr. Reactions are carried out at 25° C. and 1 nM JAK3. To each well of a 96 well polycarbonate plate is added 1.5 μl of a candidate JAK3 inhibitor along with 50 μl of kinase buffer containing 2 μM poly(Glu)4Tyr and 10 μM ATP. This is then mixed and 50 μl of kinase buffer containing 2 nM JAK3 enzyme is added to start the reaction. After 20 minutes at room temperature (25 C), the reaction is stopped with 50 μl of 20% trichloroacetic acid (TCA) that also contained 0.4 mM ATP. The entire contents of each well are then transferred to a 96 well glass fiber filter plate using a TomTek Cell Harvester. After washing, 60 μl of scintillation fluid is added and ^33P incorporation detected on a Perkin Elmer TopCount.

Itk = biological target: T2, Itk (Homo sapiens, UniProt Q08881); experiment: ITK Inhibition Assay (Radiometric), radioactive-phosphate incorporation; conditions: enzyme inhibition data (Ki), Table 11; radiometric or UV assay not stated
T2 sequence (Q08881 1-620): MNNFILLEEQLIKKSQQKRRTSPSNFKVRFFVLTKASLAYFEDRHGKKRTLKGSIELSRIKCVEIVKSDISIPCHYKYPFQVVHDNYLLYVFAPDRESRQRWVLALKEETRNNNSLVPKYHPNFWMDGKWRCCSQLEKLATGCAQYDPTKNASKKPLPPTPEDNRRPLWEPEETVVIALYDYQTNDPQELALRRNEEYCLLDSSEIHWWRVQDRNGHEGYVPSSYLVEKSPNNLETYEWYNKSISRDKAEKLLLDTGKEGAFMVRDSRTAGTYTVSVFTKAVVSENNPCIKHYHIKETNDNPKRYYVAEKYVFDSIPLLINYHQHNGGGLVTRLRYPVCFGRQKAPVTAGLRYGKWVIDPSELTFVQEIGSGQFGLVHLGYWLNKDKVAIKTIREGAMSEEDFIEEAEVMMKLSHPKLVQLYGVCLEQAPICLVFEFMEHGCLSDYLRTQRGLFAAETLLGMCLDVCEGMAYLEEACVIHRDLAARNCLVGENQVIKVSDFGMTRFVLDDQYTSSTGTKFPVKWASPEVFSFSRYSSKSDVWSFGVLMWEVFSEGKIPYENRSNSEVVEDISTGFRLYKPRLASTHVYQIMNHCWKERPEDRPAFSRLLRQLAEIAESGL
Procedure: Assays are carried out in a mixture of 20 mM MOPS (pH 7.0), 10 mM MgCl2, 0.1% BSA and 1 mM DTT. Final substrate concentrations in the assay are 7.5 μM [γ-33P]ATP (400 mCi 33P ATP/mmol ATP, Amersham Pharmacia Biotech/Sigma Chemicals) and 3 μM peptide (SAM68 protein D332-443). Assays are carried out at 25° C. in the presence of 50 nM Itk. An assay stock buffer solution is prepared containing all of the reagents listed above, with the exception of ATP and the test compound of interest. 50 μL of the stock solution is placed in a 96 well plate followed by addition of 2 μL of DMSO stock containing serial dilutions of the test compound (typically starting from a final concentration of 50 μM with 2-fold serial dilutions) in duplicate (final DMSO concentration 2%). The plate is pre-incubated for 10 minutes at 25° C. and the reaction initiated by addition of 50 μL [γ-33P]ATP (final concentration 7.5 μM).
The reaction is stopped after 10 minutes by the addition of […] 0.2M phosphoric acid+0.01% TWEEN 20. A multiscreen phosphocellulose filter 96-well plate (Millipore, Cat no. MAPHN0B50) is pretreated with 100 μL 0.2M phosphoric acid +0.01% TWEEN 20 prior to the addition of […] of the stopped assay mixture. The plate is washed with 4×200 μL 0.2M phosphoric acid+0.01% TWEEN 20. After drying, 30 μL Optiphase ‘SuperMix’ liquid scintillation cocktail (Perkin Elmer) is added to the well prior to scintillation counting (1450 Microbeta Liquid Scintillation Counter, Wallac).
Ki(app) data are calculated from non-linear regression analysis of the initial rate data using the Prism software package (GraphPad Prism version 3.0cx for Macintosh, GraphPad Software, San Diego Calif., USA).

Chain of c-Met (P08581 25-1390): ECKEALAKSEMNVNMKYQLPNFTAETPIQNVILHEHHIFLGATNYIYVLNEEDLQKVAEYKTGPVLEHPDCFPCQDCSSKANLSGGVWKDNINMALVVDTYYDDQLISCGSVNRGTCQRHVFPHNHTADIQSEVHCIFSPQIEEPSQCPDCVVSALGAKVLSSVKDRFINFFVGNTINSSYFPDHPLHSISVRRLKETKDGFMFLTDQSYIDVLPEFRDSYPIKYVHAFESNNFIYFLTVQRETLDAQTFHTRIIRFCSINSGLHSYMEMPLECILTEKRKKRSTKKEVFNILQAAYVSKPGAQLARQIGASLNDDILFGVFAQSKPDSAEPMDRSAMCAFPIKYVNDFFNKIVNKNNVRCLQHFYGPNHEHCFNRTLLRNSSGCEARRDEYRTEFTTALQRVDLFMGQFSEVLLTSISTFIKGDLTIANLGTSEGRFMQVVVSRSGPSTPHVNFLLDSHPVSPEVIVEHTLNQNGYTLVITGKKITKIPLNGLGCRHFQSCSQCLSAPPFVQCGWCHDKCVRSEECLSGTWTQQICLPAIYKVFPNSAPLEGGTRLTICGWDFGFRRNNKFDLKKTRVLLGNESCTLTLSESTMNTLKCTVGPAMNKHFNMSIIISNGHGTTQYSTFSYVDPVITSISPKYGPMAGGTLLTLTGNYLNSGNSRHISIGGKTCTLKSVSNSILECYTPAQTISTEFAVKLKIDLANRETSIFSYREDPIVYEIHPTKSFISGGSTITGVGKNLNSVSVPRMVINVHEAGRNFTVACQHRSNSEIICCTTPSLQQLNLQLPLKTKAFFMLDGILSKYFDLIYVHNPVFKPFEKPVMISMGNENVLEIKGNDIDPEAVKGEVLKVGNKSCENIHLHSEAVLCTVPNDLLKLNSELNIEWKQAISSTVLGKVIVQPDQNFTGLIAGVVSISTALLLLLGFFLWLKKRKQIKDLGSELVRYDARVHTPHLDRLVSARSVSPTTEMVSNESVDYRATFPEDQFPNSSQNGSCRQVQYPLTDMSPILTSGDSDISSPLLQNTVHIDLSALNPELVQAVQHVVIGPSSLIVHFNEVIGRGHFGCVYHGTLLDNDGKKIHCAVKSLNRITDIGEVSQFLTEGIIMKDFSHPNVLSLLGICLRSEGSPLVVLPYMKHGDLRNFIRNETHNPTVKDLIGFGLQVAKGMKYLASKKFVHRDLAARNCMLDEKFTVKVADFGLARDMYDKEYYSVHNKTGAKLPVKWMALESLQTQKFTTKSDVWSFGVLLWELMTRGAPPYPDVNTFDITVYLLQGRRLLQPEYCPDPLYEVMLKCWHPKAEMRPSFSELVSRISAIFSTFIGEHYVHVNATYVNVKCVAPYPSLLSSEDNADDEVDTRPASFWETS

SMILES	Ki (c-Met)	Ki (JAK3)	Ki (Itk)
Nc1nn2cc(-c3ccccc3C=O)cnc2c1-c1ccccn1 [Compound V-12]	0.5 to 5 µM	> 5 µM	0.5 to 5 µM
COC(=O)C1CCCN1C(=O)c1ccc(-c2cnc3c(-c4ccccn4)c(N)nn3c2)nc1 (stereo not drawn) [Compound V-66]	< 0.5 µM	0.5 to 5 µM	0.5 to 5 µM
CCN(CC)CCN(C)CCCc1cnc2c(-c3ccccn3)c(N)nn2c1 [Compound V-321]	0.5 to 5 µM	> 5 µM	0.5 to 5 µM
Nc1nn2cc(-c3ccccc3C(F)(F)F)cnc2c1-c1ccccn1 [Compound V-5]	0.5 to 5 µM	> 5 µM	0.5 to 5 µM
CCN(CCO)C(=O)c1ccc(-c2cnc3c(-c4ccccn4)c(N)nn3c2)nc1 [Compound V-99]	< 0.5 µM	0.5 to 5 µM	< 0.5 µM
CCC(C)Nc1cc(-c2c(N)nn3cc(C)cnc23)ncn1 (stereo not drawn) [Compound V-282]	< 0.5 µM	0.5 to 5 µM	0.5 to 5 µM
Nc1nn2cc(CCCN3CCOCC3)cnc2c1-c1ccccn1 [Compound V-313]	0.5 to 5 µM	> 5 µM	0.5 to 5 µM
Cc1cnc2c(-c3cc(N4CCC(NC(=O)C(F)(F)F)C4)ncn3)c(N)nn2c1 (stereo not drawn) [Compound V-343]	0.5 to 5 µM	0.5 to 5 µM	0.5 to 5 µM
Nc1nn2cc(-c3ccccn3)cnc2c1C(=O)NCc1ccc(Cl)c(Cl)c1 [Compound V-47]	0.5 to 5 µM	> 5 µM	0.5 to 5 µM
Nc1nn2cc(-c3ccnc(N4CCN(CCO)CC4)c3)cnc2c1-c1ccccn1 [Compound V-248]	< 0.5 µM	0.5 to 5 µM	0.5 to 5 µM
Nc1nn2cc(CCCN3CCSCC3)cnc2c1-c1ccccn1 [Compound V-328]	0.5 to 5 µM	> 5 µM	0.5 to 5 µM
Nc1nn2cc(-c3cccnc3N3CCN(Cc4ccncc4)CC3)cnc2c1-c1ccccn1 [Compound V-264]	0.5 to 5 µM	> 5 µM	0.5 to 5 µM
CNC(=O)c1cccc(-c2cnc3c(-c4ccccn4)c(N)nn3c2)n1 [Compound V-118]	< 0.5 µM	> 5 µM	0.5 to 5 µM
CC(C)CNC(=O)c1cnc2c(-c3ccccn3)c(N)nn2c1 [Compound V-205]	0.5 to 5 µM	> 5 µM	0.5 to 5 µM
CCN(CCO)C(=O)c1cccc(-c2cnc3c(-c4ccccn4)c(N)nn3c2)n1 [Compound V-128]	< 0.5 µM	> 5 µM	0.5 to 5 µM
Cc1cccc(C)c1-c1cnc2c(-c3ccccn3)c(N)nn2c1 [Compound V-4]	0.5 to 5 µM	> 5 µM	0.5 to 5 µM
Nc1nn2cc(-c3cccnc3N3CCC(CCO)CC3)cnc2c1-c1ccccn1 [Compound V-271]	0.5 to 5 µM	> 5 µM	0.5 to 5 µM
CN(C)c1ccc(CNC(=O)c2c(N)nn3cc(-c4ccncn4)cnc23)cc1 [Compound V-43]	0.5 to 5 µM	> 5 µM	0.5 to 5 µM
CN(CC1OCCO1)C(=O)c1ccc(-c2cnc3c(-c4ccccn4)c(N)nn3c2)nc1 [Compound V-95]	< 0.5 µM	0.5 to 5 µM	< 0.5 µM
CN1CCCN(c2cc(-c3cnc4c(-c5ccccn5)c(N)nn4c3)ccn2)CC1 [Compound V-254]	0.5 to 5 µM	> 5 µM	0.5 to 5 µM
CC(C)(C)OCc1ccccc1-c1cnc2c(-c3ccccn3)c(N)nn2c1 [Compound V-49]	0.5 to 5 µM	> 5 µM	0.5 to 5 µM
Nc1nn2cc(-c3ccc(N4CCCCC4)nc3)cnc2c1-c1ccccn1 [Compound V-147]	0.5 to 5 µM	> 5 µM	0.5 to 5 µM
Nc1nn2cc(-c3cccnc3N3CCCC(CO)C3)cnc2c1-c1ccccn1 (stereo not drawn) [Compound V-270]	0.5 to 5 µM	> 5 µM	0.5 to 5 µM
N#Cc1ccccc1-c1cnc2c(-c3ccccn3)c(N)nn2c1 [Compound V-10]	0.5 to 5 µM	> 5 µM	0.5 to 5 µM
CS(=O)(=O)Nc1ccccc1-c1cnc2c(-c3ccccn3)c(N)nn2c1 [Compound V-16]	0.5 to 5 µM	> 5 µM	0.5 to 5 µM
COc1ccc(-c2cnc3c([N+](=O)[O-])c(N)nn3c2)cc1 [Compound V-239]	0.5 to 5 µM	> 5 µM	0.5 to 5 µM
